According to PubChem BioAssay AID2060887 (Molecular Pharmacology Branch, DTP, NCI, 2025):

System: 782815-120-R-J1-PDC complex spheroid viability
Assay: Anticancer human tumor 782815-120-R-J1-PDC patient-derived colon adenocarcinoma cell line growth inhibition [RAS]
Conditions: for IC50: curve of first compound; for viability, T/C: stronger effect = lower value
Procedure, shortened: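 Agents were tested in combination matrices in half-log decrements from a top concentration at or near clinical Cmax (10 microM if undetermined). Targets were multi-cell spheroids of tumour lines plus HUVEC and MSC stromal cells.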

[1] = second compound 0.000949 µM, first compound 0.00316 µM
[2] = second compound 0.000949 µM, first compound 0.01 µM
[3] = second compound 0.000949 µM, first compound 0.0316 µM
[4] = second compound 0.000949 µM, first compound 0.1 µM
[5] = second compound 0.000949 µM, first compound 0.316 µM
[6] = second compound 0.000949 µM, first compound 1 µM
[7] = second compound 0.003 µM, first compound 0.00316 µM
[8] = second compound 0.003 µM, first compound 0.01 µM
[9] = second compound 0.003 µM, first compound 0.0316 µM
[10] = second compound 0.003 µM, first compound 0.1 µM
[11] = second compound 0.003 µM, first compound 0.316 µM
[12] = second compound 0.003 µM, first compound 1 µM
[13] = second compound 0.00949 µM, first compound 0.00316 µM
[14] = second compound 0.00949 µM, first compound 0.01 µM
[15] = second compound 0.00949 µM, first compound 0.0316 µM
[16] = second compound 0.00949 µM, first compound 0.1 µM
[17] = second compound 0.00949 µM, first compound 0.316 µM
[18] = second compound 0.00949 µM, first compound 1 µM
[19] = second compound 0.03 µM, first compound 0.00316 µM
[20] = second compound 0.03 µM, first compound 0.01 µM
[21] = second compound 0.03 µM, first compound 0.0316 µM
[22] = second compound 0.03 µM, first compound 0.1 µM
[23] = second compound 0.03 µM, first compound 0.316 µM
[24] = second compound 0.03 µM, first compound 1 µM
[25] = second compound 0.0949 µM, first compound 0.00316 µM
[26] = second compound 0.0949 µM, first compound 0.01 µM
[27] = second compound 0.0949 µM, first compound 0.0316 µM
[28] = second compound 0.0949 µM, first compound 0.1 µM
[29] = second compound 0.0949 µM, first compound 0.316 µM
[30] = second compound 0.0949 µM, first compound 1 µM
[31] = second compound 0.3 µM, first compound 0.00316 µM
[32] = second compound 0.3 µM, first compound 0.01 µM
[33] = second compound 0.3 µM, first compound 0.0316 µM
[34] = second compound 0.3 µM, first compound 0.1 µM
[35] = second compound 0.3 µM, first compound 0.316 µM
[36] = second compound 0.3 µM, first compound 1 µM
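Further: spheroids exposed to compounds for 7 days before reading.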
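Wherever viability, T/C is given: 100% = DMSO vehicle control viability.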

C=CC(=O)Nc1cc(Nc2nccc(-c3cn(C)c4ccccc34)n2)c(OC)cc1N(C)CCN(C)C + CCn1c(-c2cccnc2C(C)OC)c2c3cc(ccc31)N1CCOC(CC(NC(=O)C(C(C)C)N(C)C(=O)C3(F)CCN(C(=O)C#CC(C)(C)N(C)C)CC3)C(=O)N3CCCC(N3)C(=O)OCC(C)(C)C2)C1
IC50 (second compound 0.000949 µM): > 1000 nM
IC50 (second compound 0.003 µM): > 1000 nM
IC50 (second compound 0.00949 µM): > 1000 nM
IC50 (second compound 0.03 µM): > 1000 nM
IC50 (second compound 0.0949 µM): > 1000 nM
IC50 (second compound 0.3 µM): > 1000 nM
viability, T/C [1]: 102%
viability, T/C [2]: 97.7%
viability, T/C [3]: 99.6%
viability, T/C [4]: 103%
viability, T/C [5]: 87.2%
viability, T/C [6]: 84%
viability, T/C [7]: 102%
viability, T/C [8]: 91.1%
viability, T/C [9]: 90.9%
viability, T/C [10]: 91.9%
viability, T/C [11]: 93.8%
viability, T/C [12]: 83.2%
viability, T/C [13]: 96.9%
viability, T/C [14]: 92.8%
viability, T/C [15]: 94.2%
viability, T/C [16]: 96.5%
viability, T/C [17]: 100%
viability, T/C [18]: 84.3%
viability, T/C [19]: 86.4%
viability, T/C [20]: 92.8%
viability, T/C [21]: 96.3%
viability, T/C [22]: 86.4%
viability, T/C [23]: 93%
viability, T/C [24]: 86.1%
viability, T/C [25]: 94.2%
viability, T/C [26]: 94.8%
viability, T/C [27]: 85.3%
viability, T/C [28]: 97.3%
viability, T/C [29]: 106%
viability, T/C [30]: 86.4%
viability, T/C [31]: 85.1%
viability, T/C [32]: 88%
viability, T/C [33]: 96.7%
viability, T/C [34]: 88.7%
viability, T/C [35]: 97%
viability, T/C [36]: 73.8%

CC(Nc1ccc2c(c1)OCCn1cc(N3C(=O)OCC3C(F)F)nc1-2)C(N)=O (stereo unspecified) + CCn1c(-c2cccnc2C(C)OC)c2c3cc(ccc31)N1CCOC(CC(NC(=O)C(C(C)C)N(C)C(=O)C3(F)CCN(C(=O)C#CC(C)(C)N(C)C)CC3)C(=O)N3CCCC(N3)C(=O)OCC(C)(C)C2)C1
IC50 (second compound 0.000949 µM): > 10000 nM
IC50 (second compound 0.003 µM): > 10000 nM
IC50 (second compound 0.00949 µM): > 10000 nM
IC50 (second compound 0.03 µM): > 10000 nM
IC50 (second compound 0.0949 µM): > 10000 nM
IC50 (second compound 0.3 µM): > 10000 nM
viability, T/C [3]: 93.3%
viability, T/C [4]: 93.9%
viability, T/C [5]: 82.2%
viability, T/C [6]: 95.2%
viability, T/C (second compound 0.000949 µM, first compound 3.16 µM): 99.2%
viability, T/C (second compound 0.000949 µM, first compound 10 µM): 81.4%
viability, T/C [9]: 93.6%
viability, T/C [10]: 94.5%
viability, T/C [11]: 93%
viability, T/C [12]: 90.8%
viability, T/C (second compound 0.003 µM, first compound 3.16 µM): 93.5%
viability, T/C (second compound 0.003 µM, first compound 10 µM): 97.5%
viability, T/C [15]: 93.4%
viability, T/C [16]: 101%
viability, T/C [17]: 91.1%
viability, T/C [18]: 95.4%
viability, T/C (second compound 0.00949 µM, first compound 3.16 µM): 93.8%
viability, T/C (second compound 0.00949 µM, first compound 10 µM): 90.8%
viability, T/C [21]: 90.7%
viability, T/C [22]: 97%
viability, T/C [23]: 90.4%
viability, T/C [24]: 89.9%
viability, T/C (second compound 0.03 µM, first compound 3.16 µM): 102%
viability, T/C (second compound 0.03 µM, first compound 10 µM): 93.2%
viability, T/C [27]: 85.9%
viability, T/C [28]: 95.3%
viability, T/C [29]: 81%
viability, T/C [30]: 98.9%
viability, T/C (second compound 0.0949 µM, first compound 3.16 µM): 106%
viability, T/C (second compound 0.0949 µM, first compound 10 µM): 94.8%
viability, T/C [33]: 95.1%
viability, T/C [34]: 92%
viability, T/C [35]: 90%
viability, T/C [36]: 82.8%
viability, T/C (second compound 0.3 µM, first compound 3.16 µM): 94.6%
viability, T/C (second compound 0.3 µM, first compound 10 µM): 87.3%

O=C(c1ccc(F)c(F)c1Nc1ccc(I)cc1F)N1CC(O)([C@@H]2CCCCN2)C1 + CCn1c(-c2cccnc2C(C)OC)c2c3cc(ccc31)N1CCOC(CC(NC(=O)C(C(C)C)N(C)C(=O)C3(F)CCN(C(=O)C#CC(C)(C)N(C)C)CC3)C(=O)N3CCCC(N3)C(=O)OCC(C)(C)C2)C1
IC50 (second compound 0.000949 µM): 47.7 nM
IC50 (second compound 0.003 µM): 53.4 nM
IC50 (second compound 0.00949 µM): 45.5 nM
IC50 (second compound 0.03 µM): 51.9 nM
IC50 (second compound 0.0949 µM): 46.1 nM
IC50 (second compound 0.3 µM): 40.6 nM
viability, T/C [1]: 91.2%
viability, T/C [2]: 74.1%
viability, T/C [3]: 60%
viability, T/C [4]: 35.2%
viability, T/C [5]: 17%
viability, T/C [6]: 1.9%
viability, T/C [7]: 85.9%
viability, T/C [8]: 73.5%
viability, T/C [9]: 60.6%
viability, T/C [10]: 39.1%
viability, T/C [11]: 16.4%
viability, T/C [12]: 2.12%
viability, T/C [13]: 88%
viability, T/C [14]: 74.6%
viability, T/C [15]: 57.7%
viability, T/C [16]: 34.5%
viability, T/C [17]: 15.9%
viability, T/C [18]: 1.1%
viability, T/C [19]: 79.2%
viability, T/C [20]: 86.5%
viability, T/C [21]: 55.3%
viability, T/C [22]: 36.6%
viability, T/C [23]: 14.8%
viability, T/C [24]: 1.32%
viability, T/C [25]: 78.3%
viability, T/C [26]: 73.4%
viability, T/C [27]: 55.4%
viability, T/C [28]: 36.5%
viability, T/C [29]: 16.3%
viability, T/C [30]: 3.86%
viability, T/C [31]: 81.3%
viability, T/C [32]: 66.4%
viability, T/C [33]: 56.3%
viability, T/C [34]: 35.5%
viability, T/C [35]: 14.2%
viability, T/C [36]: 0.95%
